Data from the supplement of paper PMC6045584.
± gives the standard deviation of the averaged measurements.

Columns and labels:
[1] = compound: CC(=O)NCC(=O)N1[C@@H]2CC[C@H]1c1ccc(Nc3ncc(C(F)(F)F)c(NC4CCC4)n3)cc12; experiment: surviving fraction relative to DMSO-only wells; higher = less growth inhibition; conditions: exposure time: 5 days
Procedure, shortened: (§1)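 A line counted only if its three screens reached replicate Pearson r >0.7 and median Z' >0.3. Tumour cells in log phase were seeded at 250–500 per well in 384-well plates and, after 24 hours, kept in continuous contact with inhibitors at 0.5, 1, 5, 10, 50, 100, 500 and 1000 nM for five days. Surviving fraction was taken from CellTiter-Glo luminescence relative to the median of DMSO-only wells.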

[2] = compound: T1, CC(=O)O[C@H]1C(=O)[C@@]2(C)[C@H]([C@H](OC(=O)c3ccccc3)[C@]3(O)C[C@H](OC(=O)[C@H](O)[C@@H](NC(=O)c4ccccc4)c4ccccc4)C(C)=C1C3(C)C)[C@]1(OC(C)=O)CO[C@@H]1C[C@@H]2O [PACLITAXEL]; experiment: as above; conditions: exposure time: 5 days
Procedure, shortened: as §1

[3] = compound: CC(=O)c1c(C)c2cnc(Nc3ccc(N4CCNCC4)cn3)nc2n(C2CCCC2)c1=O; experiment: as above; conditions: exposure time: 5 days
Procedure, shortened: as §1

[4] = compound: T2, CC[C@@]1(O)C(=O)OCc2c1cc1n(c2=O)Cc2cc3ccccc3nc2-1 [CAMPTOTHECIN]; experiment: as above; conditions: exposure time: 5 days
Procedure, shortened: as §1

[5] = compound: T3, COCC[n+]1c2c(n(Cc3cnccn3)c1C)C(=O)c1ccccc1C2=O [YM155]; experiment: as above; conditions: exposure time: 5 days
Procedure, shortened: as §1

[6] = compound: T4, COc1cc2ncnc(Nc3ccc(F)c(Cl)c3)c2cc1OCCCN1CCOCC1 [GEFITINIB]; experiment: as above; conditions: exposure time: 5 days
Procedure, shortened: as §1

[7] = compound: T5, C[C@]1(O)C[C@@H](c2nc(-c3ccc4ccc(-c5ccccc5)nc4c3)c3c(N)nccn32)C1 [OSI-906]; experiment: as above; conditions: exposure time: 5 days
Procedure, shortened: as §1

[8] = compound: T6, Cc1ccc(-c2cc(C(F)(F)F)nn2-c2ccc(S(N)(=O)=O)cc2)cc1 [CELECOXIB]; experiment: as above; conditions: exposure time: 5 days
Procedure, shortened: as §1

[9] = compound: T7, O=C(O)C1(C(=O)O)CCC1.[NH2-].[NH2-].[Pt+2] [CARBOPLATIN]; experiment: as above; conditions: exposure time: 5 days
Procedure, shortened: as §1

[10] = compound: CC(=O)NCC(=O)N1[C@@H]2CC[C@H]1c1ccc(Nc3ncc(C(F)(F)F)c(NC4CCC4)n3)cc12; experiment: area under dose-response curve of surviving fraction (unscaled, Aref=0) (surviving fraction x log10(nM)); higher = more resistant; conditions: exposure time: 5 days; dose range 0.5-1000 nM
Procedure, shortened: (§2)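 Tumour cell lines in 384-well plates were exposed for five days to eight inhibitor concentrations from 0.5 to 1000 nM. Viability was read by CellTiter-Glo luminescence, normalised to DMSO-only wells, in three screens per line. Dose-response survival curves were fitted to surviving fractions by 3-parameter logistic regression in the drc R package. Area under the curve is the unscaled activity area (Aref = 0) over log10 dose.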

[11] = compound: T1, PACLITAXEL; experiment: as above; conditions: exposure time: 5 days; dose range 0.5-1000 nM
Procedure, shortened: as §2

[12] = compound: CC(=O)c1c(C)c2cnc(Nc3ccc(N4CCNCC4)cn3)nc2n(C2CCCC2)c1=O; experiment: as above; conditions: exposure time: 5 days; dose range 0.5-1000 nM
Procedure, shortened: as §2

[13] = compound: T2, CAMPTOTHECIN; experiment: as above; conditions: exposure time: 5 days; dose range 0.5-1000 nM
Procedure, shortened: as §2

[14] = compound: T3, YM155; experiment: as above; conditions: exposure time: 5 days; dose range 0.5-1000 nM
Procedure, shortened: as §2

[15] = compound: T4, GEFITINIB; experiment: as above; conditions: exposure time: 5 days; dose range 0.5-1000 nM
Procedure, shortened: as §2

[16] = compound: T5, OSI-906; experiment: as above; conditions: exposure time: 5 days; dose range 0.5-1000 nM
Procedure, shortened: as §2

[17] = compound: T6, CELECOXIB; experiment: as above; conditions: exposure time: 5 days; dose range 0.5-1000 nM
Procedure, shortened: as §2

[18] = compound: T7, CARBOPLATIN; experiment: as above; conditions: exposure time: 5 days; dose range 0.5-1000 nM
Procedure, shortened: as §2

HELA CERVIX
surviving fraction ([1]; 0.5 nM): 0.991 ± 0.05 | surviving fraction ([1]; 1 nM): 1.02 ± 0.092 | surviving fraction ([1]; 5 nM): 0.977 ± 0.051 | surviving fraction ([1]; 10 nM): 0.956 ± 0.048 | surviving fraction ([1]; 50 nM): 0.697 ± 0.053 | surviving fraction ([1]; 100 nM): 0.4 ± 0.052 | surviving fraction ([1]; 500 nM): 0.168 ± 0.03 | surviving fraction ([1]; 1000 nM): 0.142 ± 0.015 | surviving fraction ([2]; 0.5 nM): 1.04 ± 0.037 | surviving fraction ([2]; 1 nM): 1.05 ± 0.1 | surviving fraction ([2]; 5 nM): 0.0503 ± 0.001 | surviving fraction ([2]; 10 nM): 0.0423 ± 0.0041 | surviving fraction ([2]; 50 nM): 0.0277 ± 0.0016 | surviving fraction ([2]; 100 nM): 0.0237 ± 0.0039 | surviving fraction ([2]; 500 nM): 0.017 ± 0.0015 | surviving fraction ([2]; 1000 nM): 0.0247 ± 0.00076 | surviving fraction ([3]; 0.5 nM): 1.03 ± 0.037 | surviving fraction ([3]; 1 nM): 0.986 ± 0.016 | surviving fraction ([3]; 5 nM): 1.01 ± 0.046 | surviving fraction ([3]; 10 nM): 0.959 ± 0.04 | surviving fraction ([3]; 50 nM): 1.14 ± 0.072 | surviving fraction ([3]; 100 nM): 1.15 ± 0.034 | surviving fraction ([3]; 500 nM): 1.16 ± 0.021 | surviving fraction ([3]; 1000 nM): 1.04 ± 0.039 | surviving fraction ([4]; 0.5 nM): 0.934 ± 0.062 | surviving fraction ([4]; 1 nM): 0.937 ± 0.044 | surviving fraction ([4]; 5 nM): 0.967 ± 0.04 | surviving fraction ([4]; 10 nM): 1.06 ± 0.014 | surviving fraction ([4]; 50 nM): 0.253 ± 0.019 | surviving fraction ([4]; 100 nM): 0.373 ± 0.02 | surviving fraction ([4]; 500 nM): 0.0667 ± 0.0072 | surviving fraction ([4]; 1000 nM): 0.0348 ± 0.0013 | surviving fraction ([5]; 0.5 nM): 0.9905 ± 0.0069 | surviving fraction ([5]; 1 nM): 0.966 ± 0.06 | surviving fraction ([5]; 5 nM): 0.487 ± 0.0092 | surviving fraction ([5]; 10 nM): 0.23 ± 0.0095 | surviving fraction ([5]; 50 nM): 0.0242 ± 0.00076 | surviving fraction ([5]; 100 nM): 0.021 ± 0.0013 | surviving fraction ([5]; 500 nM): 0.0187 ± 0.00058 | surviving fraction ([5]; 1000 nM): 0.0228 ± 0.00076 | surviving fraction ([6]; 0.5 nM): 1.07 ± 0.044 | surviving fraction ([6]; 1 nM): 1.05 ± 0.019 | surviving fraction ([6]; 5 nM): 1.106 ± 0.0031 | surviving fraction ([6]; 10 nM): 1.06 ± 0.033 | surviving fraction ([6]; 50 nM): 1.15 ± 0.029 | surviving fraction ([6]; 100 nM): 1.14 ± 0.022 | surviving fraction ([6]; 500 nM): 1.18 ± 0.065 | surviving fraction ([6]; 1000 nM): 1.14 ± 0.058 | surviving fraction ([7]; 0.5 nM): 0.971 ± 0.033 | surviving fraction ([7]; 1 nM): 0.981 ± 0.054 | surviving fraction ([7]; 5 nM): 0.955 ± 0.069 | surviving fraction ([7]; 10 nM): 0.88 ± 0.09 | surviving fraction ([7]; 50 nM): 1.03 ± 0.035 | surviving fraction ([7]; 100 nM): 1.07 ± 0.036 | surviving fraction ([7]; 500 nM): 1 ± 0.081 | surviving fraction ([7]; 1000 nM): 1.01 ± 0.048 | surviving fraction ([8]; 0.5 nM): 1.09 ± 0.049 | surviving fraction ([8]; 1 nM): 1.11 ± 0.047 | surviving fraction ([8]; 5 nM): 1.05 ± 0.058 | surviving fraction ([8]; 10 nM): 1.05 ± 0.039 | surviving fraction ([8]; 50 nM): 1.09 ± 0.018 | surviving fraction ([8]; 100 nM): 1.16 ± 0.044 | surviving fraction ([8]; 500 nM): 1.14 ± 0.033 | surviving fraction ([8]; 1000 nM): 1.13 ± 0.049 | surviving fraction ([9]; 0.5 nM): 1.07 ± 0.02 | surviving fraction ([9]; 1 nM): 1.03 ± 0.042 | surviving fraction ([9]; 5 nM): 1.03 ± 0.034 | surviving fraction ([9]; 10 nM): 1.01 ± 0.02 | surviving fraction ([9]; 50 nM): 1.05 ± 0.053 | surviving fraction ([9]; 100 nM): 1.14 ± 0.088 | surviving fraction ([9]; 500 nM): 1.15 ± 0.055 | surviving fraction ([9]; 1000 nM): 1.09 ± 0.045 | area under dose-response curve [10]: 2.21 | area under dose-response curve [11]: 0.718 | area under dose-response curve [12]: 3.5 | area under dose-response curve [13]: 1.99 | area under dose-response curve [14]: 1.07 | area under dose-response curve [15]: 3.66 | area under dose-response curve [16]: 3.27 | area under dose-response curve [17]: 3.64 | area under dose-response curve [18]: 3.53
